From patent US20250230193A1, “CYCLIC COMPOUND HAVING SELECTIVE KRAS INHIBITORY EFFECT ON HRAS AND NRAS” (CHUGAI SEIYAKU KABUSHIKI KAISHA, priority 2022, published 2025)
*1 amine or outer side, *2 acyl side, *3 side chain or, on linkers, in order; H or OH if unused. Where a SMILES comes first, the peptide text is derived from it. Bridges are numbered along the chain shown (N, C = ends). [ ]: non-standard residue; d: D form. The star is where a group is joined. hPhe(3-Cl-4-CF3) = N[C@@H](CCc1ccc(C(F)(F)F)c(Cl)c1)C(=O)O; NPrPhe(4-CF3) = CCCN[C@@H](Cc1ccc(C(F)(F)F)cc1)C(=O)O; NPrPhe(4-Me) = CCCN[C@@H](Cc1ccc(C)cc1)C(=O)O; X30 = CCN([C@H](C(=O)[*:2])C1CCCC1)[*:1]; NMeGly(cPent) = CN[C@H](C(=O)O)C1CCCC1; NMeD = CN[C@@H](CC(=O)O)C(=O)O; NMeL = CN[C@@H](CC(C)C)C(=O)O; Morpholide = C1CN(*)CCO1; NMeA = CN[C@@H](C)C(=O)O; Ac5c = NC1(C(=O)O)CCCC1; Aze = O=C(O)[C@@H]1CCN1; Ac4c = NC1(C(=O)O)CCC1; NEtG = CCNCC(=O)O; Sar = CNCC(=O)O

Experiments:
[1] = target: GDP-bound HRAS wild-type protein (Homo sapiens, UniProt P01112); assay: Binding to HRAS by surface plasmon resonance (SPR), Single Cycle Kinetics; details: for HRAS/KRAS (ratio of KD value for HRAS to KD value for KRAS) / HRAS/KRAS (ratio of KD value with respect to HRAS to KD value with respect to KRAS): GDP-bound HRAS wild-type vs GDP-bound KRAS wild-type
Sequence of GDP-bound HRAS wild-type protein (P01112 whole entry): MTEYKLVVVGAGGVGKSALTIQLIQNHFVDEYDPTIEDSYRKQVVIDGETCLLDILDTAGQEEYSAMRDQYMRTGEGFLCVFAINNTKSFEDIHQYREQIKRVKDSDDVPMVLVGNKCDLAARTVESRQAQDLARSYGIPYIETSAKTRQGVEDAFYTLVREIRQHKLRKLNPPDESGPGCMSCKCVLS

[2] = target: GDP-bound NRAS wild-type protein (Homo sapiens, UniProt P01111); assay: Binding to NRAS by surface plasmon resonance (SPR), Single Cycle Kinetics; details: for NRAS/KRAS (ratio of KD value for NRAS to KD value for KRAS) / NRAS/KRAS (ratio of KD value with respect to NRAS to KD value with respect to KRAS): GDP-bound NRAS wild-type vs GDP-bound KRAS wild-type
Sequence of GDP-bound NRAS wild-type protein (P01111 whole entry): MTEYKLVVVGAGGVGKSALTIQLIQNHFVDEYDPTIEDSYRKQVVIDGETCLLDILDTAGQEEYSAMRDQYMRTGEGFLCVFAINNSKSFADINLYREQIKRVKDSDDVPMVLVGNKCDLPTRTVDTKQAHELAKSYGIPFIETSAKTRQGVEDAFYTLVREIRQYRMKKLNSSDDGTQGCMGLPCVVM

[3] = KD ratio HRAS/KRAS, class symbols
[4] = KD ratio NRAS/KRAS, class symbols
[5] = KD ratio HRAS/KRAS, SPR, GDP-bound wild-type proteins
[6] = KD ratio NRAS/KRAS, SPR, GDP-bound wild-type proteins

For CCCN1C(=O)CN(C)C(=O)CN(C)C(=O)[C@H]([C@@H](C)CC)NC(=O)[C@H](CC(C)C)N(C)C(=O)C[C@@H](C(=O)N2CCOCC2)N(C)C(=O)[C@H](C2CCCC2)N(CC)C(=O)C2(CCC2)NC(=O)[C@@H]2CCCN2C(=O)[C@H](CCc2ccc(C(F)(F)F)c(Cl)c2)NC(=O)CN(C)C(=O)[C@@H]1Cc1ccc(C(F)(F)F)cc1 [PP1952] ([NMeL]I[Sar][Sar][NPrPhe(4-CF3)][Sar][hPhe(3-Cl-4-CF3)]P[Ac4c][X30][NMeD]-Morpholide; lactam N-11), the “HRAS/KRAS (ratio of KD value for HRAS to KD value for KRAS)” value ([1]; KD ratio, SPR) was “B (a compound having 3 or more and less than 10 is denoted as B)” and the “NRAS/KRAS (ratio of KD value for NRAS to KD value for KRAS)” value ([2]; KD ratio, SPR) was “B (a compound having 3 or more and less than 10 is denoted as B)”.

CCC[C@@H]1C[C@H]2C(=O)NC3(CC(C)(C)C3)C(=O)N(C)[C@@H](C3CCCC3)C(=O)N(C)[C@H](C(=O)N(C)C)CC(=O)N(C)[C@@H](CCC)C(=O)N[C@@H]([C@@H](C)CC)C(=O)N(C)CC(=O)N(C)[C@H]3C/C=C\CCN(C3=O)[C@@H](Cc3ccc(C)cc3)C(=O)N(C)CC(=O)N[C@@H](CCc3ccc(C(F)(F)F)c(Cl)c3)C(=O)N2C1 [PP2214] was tested, and the “HRAS/KRAS (ratio of KD value with respect to HRAS to KD value with respect to KRAS)” value ([1]; SPR) was “A (a compound having 10 or more and less than 20 is denoted as A)” and the “NRAS/KRAS (ratio of KD value with respect to NRAS to KD value with respect to KRAS)” value ([2]; SPR) was “A (a compound having 10 or more and less than 20 is denoted as A)”.

With C#CC[C@H]1C(=O)N[C@@H]([C@@H](C)CC)C(=O)N(C)CC(=O)N(C)[C@H]2C/C=C\CCN(C2=O)[C@@H](Cc2ccc(C(F)(F)F)cc2)C(=O)N(C)CC(=O)N[C@@H](CCc2cc(F)c(C(F)(F)F)c(F)c2)C(=O)N2C[C@H](OCC)C[C@H]2C(=O)NC2(CC(F)(F)C2)C(=O)N(C)[C@@H](C2CCCC2)C(=O)N(C)[C@H](C(=O)N(C)CCC)CC(=O)N1C [PP1737] the “HRAS/KRAS (ratio of KD value for HRAS to KD value for KRAS)” value ([1]; KD ratio, SPR) was “A (a compound having 10 or more and less than 20 is denoted as A)” and the “NRAS/KRAS (ratio of KD value for NRAS to KD value for KRAS)” value ([2]; KD ratio, SPR) was “A (a compound having 10 or more and less than 20 is denoted as A)”.

In the case of CCO[C@@H]1C[C@H]2C(=O)NC3(CC(F)(F)C3)C(=O)N(C)[C@@H](C3CCCC3)C(=O)N(C)[C@H](C3CCC3)CC(=O)N(C)[C@@H](CC3CC3)C(=O)N[C@@H]([C@@H](C)CC)C(=O)N(C)CC(=O)N(C)[C@H]3C/C=C\CCN(C3=O)[C@@H](Cc3ccc(C(F)(F)F)cc3)C(=O)N(C)CC(=O)N[C@@H](CCc3cc(F)c(C(F)(F)F)c(F)c3)C(=O)N2C1 [PP1639], the “HRAS/KRAS (ratio of KD value for HRAS to KD value for KRAS)” value ([1]; KD ratio, SPR) is reported as “A (a compound having 10 or more and less than 20 is denoted as A)” and the “NRAS/KRAS (ratio of KD value for NRAS to KD value for KRAS)” value ([2]; KD ratio, SPR) is reported as “A (a compound having 10 or more and less than 20 is denoted as A)”.

In the case of CCCN1C(=O)[C@@H]2CCN2C(=O)[C@H](C)N(C)C(=O)[C@H]([C@@H](C)CC)NC(=O)[C@H](CC(C)C)N(C)C(=O)C[C@@H](C(=O)N2CCOCC2)N(C)C(=O)[C@H](C2CCCC2)N(C)C(=O)C2(CCCC2)NC(=O)[C@@H]2CCCN2C(=O)[C@H](CCc2ccc(C(F)(F)F)c(Cl)c2)NC(=O)CN(CC)C(=O)[C@@H]1Cc1ccc(C)cc1 [PP0058] ([NMeL]I[NMeA][Aze][NPrPhe(4-Me)][NEtG][hPhe(3-Cl-4-CF3)]P[Ac5c][NMeGly(cPent)][NMeD]-Morpholide; lactam N-11), the “HRAS/KRAS (ratio of KD for GDP-bound HRAS wild-type to KD for KRAS)” value ([1]; KD ratio HRAS/KRAS, SPR) is reported as “C (A compound having a KD ratio of 0.1 or more and less than 3 is denoted as C)” and the “NRAS/KRAS (ratio of KD for GDP-bound NRAS wild-type to KD for KRAS)” value ([2]; KD ratio NRAS/KRAS, SPR) is reported as “C (A compound having a KD ratio of 0.1 or more and less than 3 is denoted as C)”.

With CCO[C@@H]1C[C@H]2C(=O)NC3(CCCC3)C(=O)N(C)[C@@H](C3CCCC3)C(=O)N(C)[C@H](C(=O)N(C)C)CC(=O)N(C)[C@@H](CC(C)C)C(=O)N[C@@H]([C@@H](C)CC)C(=O)N(C)CC(=O)N(C)[C@H]3C/C=C\CCN(C3=O)[C@@H](Cc3ccc(C(F)(F)F)cc3)C(=O)N(C)CC(=O)N[C@@H](CCc3ccc(C(F)(F)F)c(Cl)c3)C(=O)N2C1 [PP2838] the “HRAS/KRAS (ratio of KD value with respect to GDP-bound HRAS wild-type protein to KD value with respect to KRAS)” value [1, 3] was “A (a compound having 10 or more and less than 20 is denoted as A)” and the “NRAS/KRAS (ratio of KD value with respect to GDP-bound NRAS wild-type protein to KD value with respect to KRAS)” value [2, 4] was “AA (a compound having 20 or more is denoted as AA)”.

In the case of CCC[C@H]1C(=O)N[C@@H]([C@@H](C)CC)C(=O)N2CCC[C@H]2C(=O)N(C)[C@H]2C/C=C\CCN(C2=O)[C@@H](Cc2ccc(C(F)(F)F)cc2)C(=O)N(C)CC(=O)N[C@@H](CCc2ccc(C(F)(F)F)c(OC)c2)C(=O)N2C[C@H](OCC)C[C@H]2C(=O)N(C)C2(CCC2)C(=O)N(C)[C@@H](C2CCCC2)C(=O)N(C)[C@H](C(=O)N2CCCCC2)CC(=O)N1C [PP3099], the “HRAS/KRAS (ratio of KD value with respect to GDP-bound HRAS wild-type protein to KD value with respect to KRAS)” value [1, 5] is reported as “A (a compound having 10 or more and less than 20 is denoted as A)” and the “NRAS/KRAS (ratio of KD value with respect to GDP-bound NRAS wild-type protein to KD value with respect to KRAS)” value [2, 6] is reported as “A (a compound having 10 or more and less than 20 is denoted as A)”.

CCO[C@@H]1C[C@H]2C(=O)NC3(CC(C)(C)C3)C(=O)N(C)[C@@H](C3CCCC3)C(=O)N(C)[C@H](C(=O)N(C)C)CC(=O)N(C)[C@H]3CCCCC/C=C/c4ccc(cc4)C[C@@H](C(=O)N(C)CC(=O)N[C@@H](CCc4ccc(Cl)c(Cl)c4)C(=O)N2C1)N1CC/C=C\C[C@@H](C1=O)N(C)C(=O)CN(C)C(=O)[C@H]([C@@H](C)CC)NC3=O [PP3057] was tested, and the “HRAS/KRAS (ratio of KD value with respect to GDP-bound HRAS wild-type protein to KD value with respect to KRAS)” value [1, 5] was “B (a compound having 3 or more and less than 10 is denoted as B)” and the “NRAS/KRAS (ratio of KD value with respect to GDP-bound NRAS wild-type protein to KD value with respect to KRAS)” value [2, 6] was “A (a compound having 10 or more and less than 20 is denoted as A)”.

With CCC[C@H]1C(=O)N[C@@H]([C@@H](C)CC)C(=O)N(C)CC(=O)N(C)[C@H]2C/C=C\CCN(C2=O)[C@@H](Cc2ccc(C)cc2)C(=O)N(C)CC(=O)N[C@@H](CCc2cc(F)c(C(F)(F)F)c(F)c2)C(=O)N2C[C@H](OCC)C[C@H]2C(=O)NC2(CC(C)(C)C2)C(=O)N(C)[C@@H](CC2CC2)C(=O)N(C)[C@H](C(=O)N(C)C)CC(=O)N1C [PP2797] the “HRAS/KRAS (ratio of KD value with respect to GDP-bound HRAS wild-type protein to KD value with respect to KRAS)” value [1, 3] was “A (a compound having 10 or more and less than 20 is denoted as A)” and the “NRAS/KRAS (ratio of KD value with respect to GDP-bound NRAS wild-type protein to KD value with respect to KRAS)” value [2, 4] was “A (a compound having 10 or more and less than 20 is denoted as A)”.

For CCO[C@@H]1C[C@H]2C(=O)NC3(CCC3)C(=O)N(C)[C@@H](C3CCCC3)C(=O)N(C)[C@H](C(=O)N(C)C)CC(=O)N(C)[C@@H](Cc3ccccc3)C(=O)N[C@@H]([C@@H](C)CC)C(=O)N(C)CC(=O)N(C)[C@H]3CCCCCN(C3=O)[C@@H](Cc3ccc(F)cc3)C(=O)N(C)CC(=O)N[C@@H](CCc3cc(F)c(C(F)(F)F)c(F)c3)C(=O)N2C1 [PP1195], the “HRAS/KRAS (ratio of KD value with respect to HRAS to KD value with respect to KRAS)” value ([1]; KD ratio, SPR) was “B (a compound having 3 or more and less than 10 is denoted as B)” and the “NRAS/KRAS (ratio of KD value with respect to NRAS to KD value with respect to KRAS)” value ([2]; KD ratio, SPR) was “B (a compound having 3 or more and less than 10 is denoted as B)”.

With CC[C@H](C)[C@@H]1NC(=O)[C@H](CC(C)C)N(C)C(=O)C[C@@H](C(=O)N2CCOCC2)N(C)C(=O)[C@H](C2CCCC2)N(CC)C(=O)C2(CCCC2)NC(=O)[C@@H]2CCCN2C(=O)[C@H](CCc2cc(F)c(C(F)(F)F)c(F)c2)NC(=O)CN(C)C(=O)[C@H](Cc2ccc(C(F)(F)F)cc2)N2CCCC[C@@H](C2=O)N(C)C(=O)CN(C)C1=O [PP0538] the “HRAS/KRAS (ratio of KD value with respect to GDP-bound HRAS wild-type protein to KD value with respect to KRAS)” value ([1]; KD ratio HRAS/KRAS, SPR) was “B (a compound having 3 or more and less than 10 is denoted as B)” and the “NRAS/KRAS (ratio of KD value with respect to GDP-bound NRAS wild-type protein to KD value with respect to KRAS)” value ([2]; KD ratio NRAS/KRAS, SPR) was “B (a compound having 3 or more and less than 10 is denoted as B)”.
